Test results from US11938115B2, “Benzoselenophene-based compound, pharmaceutical composition containing same, and antibody-drug conjugate” (priority 2020, dated 2024).
pIC50: −log10 of the molar value. Non-standard residues stand in square brackets, D forms with d. Residues, ends and D or L forms follow the SMILES beside them. *: point of attachment. Dolaproine = CO[C@@H]([C@@H]1CCCN1)[C@@H](C)C(=O)O; Dil = CC[C@H](C)[C@H](NC)[C@@H](CC(=O)O)OC; X1 = C[C@@H](N*)[C@@H](O)c1ccccc1; NMeV = CN[C@H](C(=O)O)C(C)C

Assays:
[1] = system: B16F10 (Murine melanoma Cell line); assay: In vivo activity, B16F10 tumor volume; set-up: species or system mouse; settings: 5 ug/kg, 50 ug/kg, 100 ug/kg, IV, twice a week
[2] = system: glioblastoma cell line U87MG; assay: High-throughput screening, cell viability, U87MG; type: cell-based; settings: seven days after drug treatment
Method: (§1) FIG. 11A, FIG. 11B and FIG. 11C show data confirming the cell viability inhibitory effect of seven types of payloads except Compound 3 (DS-24) on the glioblastoma cell line U87MG, the multiple myeloma cell line KMS11, and the bladder cancer cell line RT112, respectively. Also, FIG. 12A, FIG. 12B, FIG. 12C, FIG. 12D, FIG. 12E and FIG. 12F show data confirming the cell viability inhibitory effect of seven types of payloads except Compound 3 (DS-24) on 6 types of cells derived from a patient with glioblastoma, respectively.
(§2) After treatment with the drug diluted to 14 different concentrations based on 20 μM as the highest concentration, it was verified whether the effect is proportional depending on the drug concentration through the concentration graph for two repeated tests. The cell viability was analyzed seven days after drug treatment to calculate IC50 that inhibits 50% of the cell viability.

[3] = system: multiple myeloma cell line KMS11; assay: High-throughput screening, cell viability, KMS11; type: cell-based; settings: seven days after drug treatment
Method: as §1, §2

[4] = system: Her2-positive human gastric cancer cells NCI-N87; assay: Cell growth inhibition assay (ATPlite), NCI-N87; type: cell-based; set-up: unit not given beside the values; settings: 3 days of incubation
Method: (§3) Her2-positive human gastric cancer cells NCI-N87 and human ovarian cancer cells SK-OV3 purchased from the American Type Culture Collection (ATCC; Manassas, VA, USA) were seeded into a 384-well plate at 500 cells per well. After plating for 2 hours, the cells were treated in quadruplicate with toxins in 5-fold and 14-point serial dilution series. After 3 days of incubation at 37° C. in a 5% CO2 humidified incubator, cell viability was checked using an adenosine triphosphate monitoring system based on firefly luciferase (ATPlite™ 1step, PerkinElmer, MA, USA). IC50 values were calculated as an average of four quadruplicated tests (GraphPad Prism 5.0, CA, and USA). FIG. 13A and FIG. 13B are graphs showing the cell viability of NCI-N87 depending on the concentrations of DS-24 and DS-26, respectively, and FIG. 14A and FIG. 14B are graphs showing the cell viability of SK-OV3 depending on the concentrations of DS-24 and DS-26, respectively.

[5] = system: GBM#2 (Glioblastoma, PDC); assay: High-throughput screening, cell viability, GBM#2; type: cell-based; settings: seven days after drug treatment
Method: as §1, §2

[6] = system: GBM#3 (Glioblastoma, PDC); assay: High-throughput screening, cell viability, GBM#3; type: cell-based; settings: seven days after drug treatment
Method: as §1, §2

[7] = system: GBM#1 (Glioblastoma, PDC); assay: High-throughput screening, cell viability, GBM#1; type: cell-based; settings: seven days after drug treatment
Method: as §1, §2

[8] = system: cell lines and cells derived from a patient with glioblastoma; assay: High-throughput screening, comparison of payloads across cell lines and brain tumor patient-derived cells; type: cell-based; settings: for cell viability inhibitory effect compared with the other payloads: all cells; for cell viability inhibitory effect on cells derived from a patient with glioblastoma compared to KMS11 and RT112: comparison between cells
Method: as §1, §2

[9] = system: bladder cancer cell line RT112; assay: High-throughput screening, cell viability, RT112; type: cell-based; settings: seven days after drug treatment
Method: as §1, §2

[10] = system: human ovarian cancer cells SK-OV3; assay: Cell growth inhibition assay (ATPlite), SK-OV3; type: cell-based; set-up: unit not given beside the values; settings: 3 days of incubation
Method: as §3

[11] = system: GBM#4 (Glioblastoma, PDC); assay: High-throughput screening, cell viability, GBM#4; type: cell-based; settings: seven days after drug treatment
Method: as §1, §2

NCI cell lines = assay: In vitro cell line activity, NCI NTP program; type: cell-based
Method: The activity of Compound 3 was checked by requesting a sample to the NCI NTP program.
Based on the results shown in FIG. 6, it was analyzed whether there was any statistical significance in the reactivity depending on cancer types in the cell lines for which the anticancer effect was confirmed by the NCI NTP program.

[12] = Hydrophobic interaction chromatography (HIC) analysis; type: physicochemical; settings: inferred from HIC, DAR species appear as one

With `COc1ccc2c(O)cc3c(c2c1)[C@H](CCl)CN3C(=O)c1cc2cc(NC(=O)CCN3CCOCC3)ccc2[se]1` [Compound 3, (S)—N-(2-(1-(chloromethyl)-5-hydroxy-8-methoxy-2,3-dihydro-1H-benzo[e]indole-3-carbonyl)benzo[b]selenophen-5-yl)-3-morpholinopropanamide] the “in vivo activity (tumor volume)” value [1] was “in vivo activity even at a very low concentration”, the pIC50 ([2]; Homo sapiens, U-87 MG, 168 h) was 10.47 and the pIC50 ([3]; Homo sapiens, KMS-11, 168 h) was 10.91. The “AUC (area under the curve), NCI-N87” value [4] was 277, the pIC50 ([5]; GBM2, 168 h) was 10.58 and the pIC50 ([6]; GBM3, 168 h) was 10.50. The pIC50 ([7]; GBM1, 168 h) was 9.01, the “cell viability inhibitory effect compared with the other payloads” value [8] was “highest cell viability inhibitory effect among the compared materials” and the pIC50 ([9]; Homo sapiens, RT-112, 168 h) was 11.08. The “AUC (area under the curve), SK-OV3” value [10] was 160, the pIC50 ([11]; 168 h) was 9.67 and the “TGI, sensitivity difference between cancer types” value (NCI cell lines; non-small cell lung cancer, CNS cancer and melanoma compared to leukemia) was “tumor growth inhibition effect”. The “activity by cancer type” value (NCI cell lines; non-small lung cancer, CNS cancer, melanoma, renal cancer) was “remarkably strong activity” and the “GI50 (Growth Inhibition 50%)” value (NCI cell lines; several cell lines) was “pM or less”.
With `COc1ccc2c(OC(=O)N(CCN(C)C(=O)OCc3ccc(O[C@@H]4O[C@@H](C(=O)O)[C@H](OC(C)=O)[C@@H](OC(C)=O)[C@@H]4OC(C)=O)cc3)Cc3cn(CCOCCOCCOCCNC(=O)CCN4C(=O)C=CC4=O)nn3)cc3c(c2c1)[C@H](CCl)CN3C(=O)c1cc2cc(NC(=O)CCN3CCOCC3)ccc2[se]1` [Compound 3-3, (2R,3R,4R,5S,6S)-3,4,5-triacetoxy-6-(4-((((2-(((((S)-1-(chloromethyl)-8-methoxy-3-(5-(3-morpholinopropanamido)benzo[b]selenophene-2-carbonyl)-2,3-dihydro-1H-benzo[e]indol-5-yl)oxy)carbonyl)((1-(15-(2,5-dioxo-2,5-dihydro-1H-pyrrol-1-yl)-13-oxo-3,6,9-trioxa-12-azapentadecyl)-1H-1,2,3-triazol-4-yl)methyl)amino)ethyl)(methyl)carbamoyl)oxy)methyl)phenoxy)tetrahydro-2H-pyran-2-carboxylic Acid] the “polarity and water solubility” value [12] was “very high polarity and a good water solubility”.
In the case of `COc1cc2cc(c1Cl)N(C)C(=O)C[C@H](OC(=O)[C@H](C)N(C)C(=O)CCS)[C@]1(C)O[C@H]1[C@H](C)[C@@H]1C[C@@](O)(NC(=O)O1)[C@H](OC)/C=C/C=C(\C)C2` [DM1], the pIC50 [2] was 7.88, the pIC50 [3] was 10.36 and the pIC50 [5] was 7.02. For the same compound, the pIC50 [7] was 6.88, the “cell viability inhibitory effect on cells derived from a patient with glioblastoma compared to KMS11 and RT112” value [8] was “remarkable decrease in the cell viability inhibitory effect” and the pIC50 [9] was 10.37. For the same compound, the pIC50 [11] was 7.04.
With `COc1cc2cc(c1Cl)N(C)C(=O)C[C@H](OC(=O)[C@H](C)N(C)C(=O)CCC(C)(C)S)[C@]1(C)O[C@H]1[C@H](C)[C@@H]1C[C@@](O)(NC(=O)O1)[C@H](OC)/C=C/C=C(\C)C2` [DM4] the pIC50 [2] was 8.82, the pIC50 [3] was 10.64 and the pIC50 [5] was 7.27. The pIC50 [7] was 7.53, the “cell viability inhibitory effect on cells derived from a patient with glioblastoma compared to KMS11 and RT112” value [8] was “remarkable decrease in the cell viability inhibitory effect” and the pIC50 [9] was 10.69. The pIC50 [11] was 8.09.
`CC[C@H](C)[C@@H]([C@@H](CC(=O)N1CCC[C@H]1[C@H](OC)[C@@H](C)C(=O)N[C@H](C)[C@@H](O)c1ccccc1)OC)N(C)C(=O)[C@@H](NC(=O)[C@@H](NC)C(C)C)C(C)C` [MMAE] (H-[NMeV]V[Dil][Dolaproine]-X1) showed a pIC50 [2] of 8.47, a pIC50 [3] of 9.82 and a pIC50 [5] of 7.82. The pIC50 [7] was 7.29, the “cell viability inhibitory effect on cells derived from a patient with glioblastoma compared to KMS11 and RT112” value [8] was “remarkable decrease in the cell viability inhibitory effect” and the pIC50 [9] was 9.59. The pIC50 [11] was 7.27.
`CC[C@H](C)[C@@H]([C@@H](CC(=O)N1CCC[C@H]1[C@H](OC)[C@@H](C)C(=O)N[C@@H](Cc1ccccc1)C(=O)O)OC)N(C)C(=O)[C@@H](NC(=O)[C@@H](NC)C(C)C)C(C)C` [MMAF] (HELM PEPTIDE1{[meV].V.[CC[C@H](C)[C@@H]([C@@H](CC(=O)[*:2])OC)N(C)[*:1]].[CO[C@H]([C@@H](C)C(=O)[*:2])[C@@H]1CCCN1[*:1]].F}$$$$V2.0) showed a pIC50 [2] of 6.45, a pIC50 [3] of 7.04 and a pIC50 [5] of 5.87. For the same compound, the pIC50 [6] was 4.51, the pIC50 [7] was 4.77 and the “cell viability inhibitory effect on cells derived from a patient with glioblastoma compared to KMS11 and RT112” value [8] was “remarkable decrease in the cell viability inhibitory effect”. It also gave a pIC50 [9] of 6.95 and a pIC50 [11] of 5.05.
For `CCc1c2c(nc3ccc(O)cc13)-c1cc3c(c(=O)n1C2)COC(=O)[C@]3(O)CC` [SN-38], the pIC50 [2] was 7.17, the pIC50 [3] was 6.77 and the pIC50 [5] was 7.01. The pIC50 [6] was 6.88, the pIC50 [7] was 6.89 and the “cell viability inhibitory effect compared with the other payloads” value [8] was “lower cell viability inhibitory effect than the other payloads”. The pIC50 [9] was 7.81 and the pIC50 [11] was 6.84.
